Read-outs that look alike come from different tables or passages of the source.
Assays:
hERG potassium channel [1] = molecular target: T1, hERG potassium channel (Homo sapiens, UniProt Q12809); assay: biochemical; conditions: hERG / Ki (nM)
hERG potassium channel [2] = molecular target: T1, hERG potassium channel; assay: biochemical; conditions: hERG / IC50 (nM)
hERG potassium channel [3] = molecular target: T1, hERG potassium channel; assay: in vitro
hERG potassium channel [4] = molecular target: T1, hERG potassium channel; assay: radioligand competition binding, membranes

T1 sequence (Q12809 whole entry): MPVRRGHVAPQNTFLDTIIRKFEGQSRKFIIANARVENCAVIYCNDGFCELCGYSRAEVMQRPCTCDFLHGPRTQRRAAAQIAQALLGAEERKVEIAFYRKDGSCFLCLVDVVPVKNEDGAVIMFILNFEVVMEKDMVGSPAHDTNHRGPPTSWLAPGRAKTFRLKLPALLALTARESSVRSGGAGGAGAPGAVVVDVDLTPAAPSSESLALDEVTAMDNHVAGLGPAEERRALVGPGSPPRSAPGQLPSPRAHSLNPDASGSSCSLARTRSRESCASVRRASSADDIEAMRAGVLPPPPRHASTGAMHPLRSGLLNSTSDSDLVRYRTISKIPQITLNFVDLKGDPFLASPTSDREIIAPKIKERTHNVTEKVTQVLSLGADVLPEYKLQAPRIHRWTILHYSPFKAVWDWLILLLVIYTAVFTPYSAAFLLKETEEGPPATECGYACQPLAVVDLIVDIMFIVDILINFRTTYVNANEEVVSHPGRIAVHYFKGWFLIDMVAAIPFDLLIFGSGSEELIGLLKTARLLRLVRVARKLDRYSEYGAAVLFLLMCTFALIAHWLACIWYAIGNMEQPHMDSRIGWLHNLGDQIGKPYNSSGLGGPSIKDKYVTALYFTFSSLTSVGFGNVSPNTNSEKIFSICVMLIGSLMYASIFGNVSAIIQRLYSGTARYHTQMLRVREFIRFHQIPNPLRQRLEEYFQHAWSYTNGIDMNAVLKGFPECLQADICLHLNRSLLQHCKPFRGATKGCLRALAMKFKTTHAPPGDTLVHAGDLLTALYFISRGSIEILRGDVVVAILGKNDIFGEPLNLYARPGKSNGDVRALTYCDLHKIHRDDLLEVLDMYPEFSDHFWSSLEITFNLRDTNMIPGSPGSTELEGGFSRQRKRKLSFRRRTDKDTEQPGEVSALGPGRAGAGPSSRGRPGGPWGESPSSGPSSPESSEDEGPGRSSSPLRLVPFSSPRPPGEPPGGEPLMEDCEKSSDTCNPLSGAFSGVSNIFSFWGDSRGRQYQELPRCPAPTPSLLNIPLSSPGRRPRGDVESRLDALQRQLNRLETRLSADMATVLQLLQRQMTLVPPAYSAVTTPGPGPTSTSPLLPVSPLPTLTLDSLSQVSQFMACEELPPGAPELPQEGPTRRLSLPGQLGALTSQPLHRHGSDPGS

Row | Structure (SMILES) | inhibition at 10 µM (hERG potassium channel [3]; % inhibition) [%] | Ki (hERG potassium channel [1]; Synthesis=Enamine) [nM] | IC50 (hERG potassium channel [2]; Synthesis=Enamine) [nM] | further results
1 | CN(C)CCCn1nc(-c2cccs2)c2ccccc2c1=O [GMD_12264] | – | – | – | Ki (hERG potassium channel [1]; Synthesis=NBI): 1340 nM; IC50 (hERG potassium channel [2]; Synthesis=NBI): 1890 nM
2 | CN(C)CCCn1nc(-c2cncc(Cl)c2)c2ccccc2c1=O [GMD_27933] | 80.4 | – | – | Ki (hERG potassium channel [1]; Synthesis=NBI): 684 nM; IC50 (hERG potassium channel [2]; Synthesis=NBI): 968 nM
3 | CN(C)CCCN(CCCN(C)C)c1ccc2c(Br)ccc(Cl)c2n1 [s_27____6492506____8281582] | 69 | 2300 | 3250 | –
4 | CN(C)CCN(Cc1cccs1)c1ccncc1Cl [s_27____7100914____16711384] | 49.5 | 6060 | 8570 | –
5 | CN(C)CCCn1nc(-c2ccc(Cl)cc2)c2ccccc2c1=O [compound 3, s_49__14518112__88929] | – | – | – | Ki (hERG potassium channel [4]): 0.643 µM
6 | CN(C)CCCN(Cc1ccc(Cl)c(Cl)c1)c1ncnc2ccn(C)c12 [m_27____7425384____18313558] | 75.9 | 604 | 854 | –
7 | CCc1csc(N(CCCN(C)C)Cc2ccc(Cl)c(Cl)c2)n1 [s_27____7425384____12641810] | 86.2 | 757 | 1070 | –
8 | CN(C)CCN(Cc1ccccc1F)C(=O)c1csc2ccccc12 [s_527____7348186____205300] | 55.6 | 4980 | 7040 | –
9 | CN(C)CCCn1nc(-c2ccc(F)cc2)c2ccccc2c1=O [compound 1, s_49__14518112__1114614] | – | – | – | Ki (hERG potassium channel [4]): 1.49 µM
10 | CN(C)CCN(Cc1cccc(Cl)c1)c1nccc2cnccc12 [s_27____7100894____16733638] | 99.7 | 84 | 119 | –
11 | CSc1ncccc1-c1nn(CCCN(C)C)c(=O)c2ccccc12 [NBI1100649] | 28.2 | – | – | Ki (hERG potassium channel [1]; Synthesis=NBI): 6150 nM; IC50 (hERG potassium channel [2]; Synthesis=NBI): 8700 nM
12 | CN(C)CCN(Cc1cccc(Cl)c1)c1ncncc1Cl [s_27____7100894____9139880] | 91.6 | 507 | 717 | –
13 | CN(C)CCCn1nc(-c2ccccc2)c2ccccc2c1=O [s_49____14518112____88928] | – | 2620 | 3710 | –
14 | CN(C)CCn1nc(-c2ccc(Cl)cc2)c2ccccc2c1=O [NBI1099469] | 71.7 | – | – | Ki (hERG potassium channel [1]; Synthesis=NBI): 1230 nM; IC50 (hERG potassium channel [2]; Synthesis=NBI): 1740 nM
15 | CN(C)CCCn1nc(-c2cccnc2)c2ccccc2c1=O [GMD_11677] | 31.1 | – | – | Ki (hERG potassium channel [1]; Synthesis=NBI): 7870 nM; IC50 (hERG potassium channel [2]; Synthesis=NBI): 11100 nM
16 | CN(C)CCCN(Cc1ccc(Cl)c(Cl)c1)c1nccc2cccnc12 [s_27____7425384____16803680] | 96.3 | 64.9 | 91.8 | –
17 | CN(C)CCn1c(-c2ccccc2Cl)nc2ccccc21 [s_60____1081314____90809] | 2.2 | 4990 | 7050 | –
18 | CN(C)CCn1nc(-c2ccccc2Cl)c2ccccc2c1=O [GMD_12767] | 84.2 | – | – | Ki (hERG potassium channel [1]; Synthesis=NBI): 1120 nM; IC50 (hERG potassium channel [2]; Synthesis=NBI): 1590 nM
19 | CN(C)CCn1nc(-c2cccc(Cl)c2)c2ccccc2c1=O [GMD_13630] | 79.1 | – | – | Ki (hERG potassium channel [1]; Synthesis=NBI): 1710 nM; IC50 (hERG potassium channel [2]; Synthesis=NBI): 2420 nM
20 | CN(C)CCN(Cc1ccccc1)c1nc2cccc(F)c2s1 [compound 4, s_27__7100858__10689034] | – | – | – | Ki (hERG potassium channel [4]): 1.59 µM
21 | CN(C)CCCn1nc(-c2ccc(Cl)cc2)c2ccccc2c1=O [s_49____14518112____88929] | – | – | 909 | –
22 | CN(C)CCN(Cc1cccc(Cl)c1)c1cncc(Cl)n1 [s_27____7100894____215633] | 78.1 | 1180 | 1660 | –
23 | CN(C)CCN(Cc1ccccc1)Cc1nc2ccccc2n1C [s_270004____10205888____7548808] | 75 | 1050 | 1480 | –
24 | CN(C)CCN(Cc1ccccc1)c1nc2cccc(F)c2s1 [s_27____7100858____10689034] | 83 | – | 2240 | –
25 | CN(C)CCCn1nc(-c2cccs2)c2ccccc2c1=O [compound 2, s_49__14518112__101877] | – | – | – | Ki (hERG potassium channel [4]): 0.946 µM
26 | CN(C)CCN(C)c1nc2ccccc2n1Cc1ccccc1F [GMD_15306] | 40.7 | – | – | Ki (hERG potassium channel [1]; Synthesis=NBI): 2150 nM; IC50 (hERG potassium channel [2]; Synthesis=NBI): 3040 nM
27 | CN(C)CCCn1nc(-c2cccs2)c2ccccc2c1=O [s_49____14518112____101877] | 81.7 | – | 1340 | –

Row | Structure (SMILES) | inhibition at 10 µM (hERG potassium channel [3]; % inhibition) [%] | Ki (hERG potassium channel [1]; Synthesis=Enamine) [nM] | IC50 (hERG potassium channel [2]; Synthesis=Enamine) [nM] | further results
28 | CN(C)CCN(Cc1cccc(F)c1)Cc1c(Cl)ccc2cccnc12 [s_270004____10206024____8625260] | 97 | 110 | 156 | –
29 | CN(C)CCCn1nc(-c2ccc(F)cc2)c2ccccc2c1=O [s_49____14518112____1114614] | 80.8 | – | 2100 | –
30 | COc1c(Cl)cc(C(=O)N(CCN(C)C)C2CCCCC2)c2ncccc12 [s_22____4639446____15428718] | 42.7 | – | – | –
31 | CN(C)CCn1nc(-c2cccnc2)c2ccccc2c1=O [GMD_36918] | 2.87 | – | – | –
32 | CN(C)CCCn1nc(-c2ccccn2)c2ccccc2c1=O [GMD_13497] | 33.6 | – | – | Ki (hERG potassium channel [1]; Synthesis=NBI): 4300 nM; IC50 (hERG potassium channel [2]; Synthesis=NBI): 6070 nM
33 | CN(C)CCCSc1nnc(-c2cnccn2)n1-c1ccc(Cl)cc1 [s_7____7285292____9475634] | 32.1 | – | – | –
34 | CN(C)CCCn1nc(-c2ccc(Cl)cc2)c2ccccc2c1=O [GMD_12503] | 72.4 | – | – | Ki (hERG potassium channel [1]; Synthesis=NBI): 866 nM; IC50 (hERG potassium channel [2]; Synthesis=NBI): 1220 nM
35 | CN(C)CCN(Cc1cccc(OCc2ccc(F)cc2)c1)Cc1nccn1C [s_270004____16637008____8127840] | 91.3 | – | – | –
36 | CN(C)CCN(Cc1ccccc1F)C(=O)N1CCCc2c(Cl)ccnc21 [s_272164____17323936____17325014] | 90.6 | 300 | 425 | –
37 | CN(C)CCCN(Cc1ccc(Cl)c(Cl)c1)c1cnc2ccccc2n1 [s_27____7425384____262944] | 93.6 | – | – | –
38 | CN(C)CCN(CCO)Cc1csc(-c2c(Cl)cccc2Cl)n1 [s_2230____15141024____14479640] | 9.6 | – | – | –
39 | Cc1ccccc1Cn1c(CCN(C)C)nc2ccccc21 [GMD_8492] | 9.23 | – | – | –
40 | CN(C)CCN(Cc1ccsc1)C(=O)c1cc2c(Cl)cncc2s1 [s_11____10910498____13033826] | 79.5 | – | – | –
41 | CN(C)CCCN(Cc1ccc(Cl)c(Cl)c1)c1ncc(Cl)cc1[N+](=O)[O-] [s_27____7425384____7556080] | 78.8 | 729 | 1030 | –
42 | CSc1nccc(N(CCCN(C)C)Cc2ccc(Cl)c(Cl)c2)n1 [s_27____7425384____15607934] | 86.6 | 772 | 1090 | –
43 | CN(C)CCN(Cc1ccccc1F)C(=O)Cc1c[nH]c2nccc(Cl)c12 [s_22____1322108____13142180] | – | – | – | inhibition at 10 µM (hERG potassium channel [3]): 38.7%
44 | CN(Cc1sccc1Cl)C[C@H]1CCCCN1C(=O)c1ncccc1F | 27.4 | – | – | –
45 | CN(C)CCCn1nc(-c2cccc(Cl)c2)c2ccccc2c1=O [GMD_9433] | 92.5 | – | – | Ki (hERG potassium channel [1]; Synthesis=NBI): 510 nM; IC50 (hERG potassium channel [2]; Synthesis=NBI): 721 nM
46 | CN(C)CCCc1nc2ccccc2n1Cc1ccccc1 [compound 5, GMD_18471] | 88.9 | – | – | Ki (hERG potassium channel [4]): 0.4 µM; IC50 (hERG potassium channel [2]; Synthesis=NBI): 565 nM
47 | CN(C)CCN(Cc1nccn1C)C(=O)c1ccn(-c2ccccc2Cl)n1 [s_22____16636986____2366818] | 25.8 | – | – | –
48 | CN(CCN(C)C(=O)c1cccnc1N(C)C)Cc1cccc(Cl)c1 | 17.1 | – | – | –
49 | CN(C)CCN(Cc1ccccc1F)Cc1c(Cl)ccc2cccnc12 [s_270004____10205940____8625260] | 88.9 | 58.3 | 82.5 | –
50 | CN(C)CCN(Cc1cccs1)c1nccc(F)c1Cl [s_27____7100914____15703356] | 55.7 | 5180 | 7320 | –
51 | CN(C)CCCN(Cc1ccc(Cl)c(Cl)c1)C(=O)c1nccnc1Cl [s_22____1500308____12360522] | 57.7 | – | – | –
52 | CN(C)CCCn1nc(-c2ccccc2)c2ccccc2c1=O [GMD_14496] | 54.2 | – | – | Ki (hERG potassium channel [1]; Synthesis=NBI): 2530 nM; IC50 (hERG potassium channel [2]; Synthesis=NBI): 3580 nM
53 | CN(C)CCC(Sc1nccn1Cc1ccccn1)c1ccccc1 (centres unmarked) [s_7____4839872____13940010] | 5.79 | – | – | –

Reference: doi:10.1101/2023.02.14.528391v1 (biorxiv, 2023)
